According to PMC12630348, “Evidence of an activity-enhancing conformational shift in Arabidopsis thaliana plant cysteine oxidase 4 induced by binding of substrate or substrate-mimics” (The Journal of Biological Chemistry, 2025):

Key:
recombinant AtPCO4 [1] = target: T1, recombinant AtPCO4 (Arabidopsis thaliana, UniProt Q9SJI9); experiment: AtPCO4 activity toward RAP2.12_2—17 with peptidomimetic, without peptidomimetic-AtPCO4 preincubation; format: biochemical; conditions: 200 μM peptidomimetic, 0.1 μM AtPCO4, 20 μM RAP2.12_2—17, 25 °C
T1 construct: His tag followed by thrombin site (N); made in house; host or cells: E. coli BL21(DE3)
Method: To test the significance of the peptidomimetic-AtPCO4 preincubation step, the method above was modified so that either 0 or 400 μM peptidomimetic was instead in mixture (ii) (Fig. 9B). Mixtures were again incubated separately at 25 °C for 6 min before being combined in equal volumes, initiating the reaction. Samples were taken and quenched in 5% (v/v) formic acid.
(§1) Spectra were assessed manually in MassHunter Qualitative Analysis B.07.00 software (Agilent) to ensure the correct ion was chosen for peptide oxidation quantification. RapidFire Integrator.exe was used to integrate areas of product and substrate ions (ii) an Acquity Ultra-high performance liquid chromatography system (Waters) coupled to a Xevo G2-XS Q-ToF mass spectrometer (Waters) operated in positive electrospray mode. Instrument parameters, data acquisition and data processing were controlled by MassLynx V4.1 software (Waters). Source parameters were adjusted to maximize sensitivity and minimize fragmentation. […] TOF mass scan range 50.00—2500.00 Da. Spectra were assessed manually in MassLynx V4.1 software (Waters) to ensure the correct ion was chosen for peptide oxidation quantification. MassLynx V4.1 software (Waters) was used to integrate areas of product and substrate ions.
(§2) Integration values obtained by MS were subsequently used to quantify reaction turnover (μmol of substrate oxidized per mg of enzyme), and graphs were generated using Prism 10 (GraphPad).

recombinant AtPCO4 [2] = target: T1, recombinant AtPCO4; experiment: AtPCO4 activity toward RAP2.12_2—17 after 6 min aerobic preincubation of enzyme with peptidomimetic or control peptide (time course, LC-MS); format: biochemical; conditions: 200 μM peptide, 6 min aerobic preincubation with 0.1 μM AtPCO4; 20 μM RAP2.12_2—17; 25 °C
Method: (§3) Recombinant AtPCO4 was expressed using BL21(DE3) Escherichia coli cells containing the plasmid pET-28a(+)-His-THROMBIN-AtPCO4, and purified using Ni^2+-affinity and size exclusion chromatography as described in ([59]). WT AtPCO4 along with AtPCO4 Cys190Ala and AtPCO4 ADO loop variants were purified using this method. WT AtPCO4 reactivity toward the peptidomimetics was assessed by incubating (0.1 μM) recombinant enzyme with (200 μM) peptidomimetic in assay buffer (assay buffer: 50 mM Bis-tris propane, 40 mM NaCl, pH 8) supplemented with 20 μM FeSO4, 1 mM ascorbate, 5 mM TCEP, at 25 °C for 20 min prior to quenching in 5% (v/v) formic acid.
(§4) Reaction samples taken at 0 s, 30 s, 60 s, 90 s, 2 min, 5 min, 10 min, 15 min, and 20 min intervals were quenched in 5% (v/v) formic acid.
as §1, §2

AtPCO4 Cys190Ala variant = experiment: Cys190Ala AtPCO4 variant activity toward RAP2.12_2—17 after preincubation with peptidomimetic; format: biochemical, Arabidopsis thaliana
Method: as §3, §4
Figure S15 Investigating the potential formation of a Cys190-Tyr192 activity-enhancing crosslink. […] Standard conditions: 5 mM TCEP, 20 μM FeSO4, 1 mM ascorbate, 25 °C. […] Error bars display S.D (n=3).

recombinant AtPCO4 [3] = target: T1, recombinant AtPCO4; experiment: Substrate only assay: anaerobic preincubation of AtPCO4 with RAP2.12_2—17; format: biochemical
Method: The assay plate was immediately removed to aerobic conditions, initiating the reaction. Samples were taken at 0 s, 2 min, 5 min, 10 min, 15 min, and 20 min and quenched in 5% (v/v) formic acid.
as §1, §2

recombinant AtPCO4 [4] = target: T1, recombinant AtPCO4; experiment: AtPCO4 activity toward RAP2.12_2—15 or RAP2.12_2—17 in the presence and absence of peptidomimetic 10 (Fig. S16); format: biochemical; conditions: 14-mer RAP2.12 substrate, slope of turnover against time (minutes)
Method: as §4
Standard conditions: 5 mM TCEP, 20 μM FeSO4, 1 mM ascorbate, 25 °C. Turnover calculated as μmol RAP2.122—15/17 oxidised per […] of AtPCO4 (data shown is not normalised). Error bars display S.D (n=3).

Row | x (slope between 0-5 min), Peptidomimetic rxn, no preincubation (recombinant AtPCO4 [1]) | x (slope between 0-5 min), Peptidomimetic rxn / CP rxn (recombinant AtPCO4 [2]) | Substance | further results
1 |  | 0.28 | XGGAIISDFIPPPR [Peptidomimetic 1, 14-mer X… mimic of RAP2.12 with N-terminal X = D-Cys] | 
2 | 0.05853 |  | XGGAIISDFIPPPR [Peptidomimetic 2, 14-mer X… with N-terminal X = homocysteine] | 
3 |  | 0.18 | XGGAIISDFIPPPR [Peptidomimetic 6, 14-mer X… with N-terminal X = TM3C (thiomorpholine, cyclized thioether)] | 
4 |  | 0.29 | XGGAIISDFIPPPR [Peptidomimetic 11, 14-mer X… with N-terminal X = hSer] | 
5 | 0.01063 |  | XGGAIISDFIPPPR [Peptidomimetic 3, 14-mer X… with N-terminal X = penicillamine] | 
6 |  |  | RAP2.12_2—17: 16-mer N-terminal L-Cys substrate peptide of AtPCO4 representing AtRAP2.12, purchased from GL Biochem (CGGAIISDFIPPPRSR; UniProt Q9SSA8 2-17, looked up, fragment) | x (slope between 5-15 min), Preincubation rxn (recombinant AtPCO4 [3]; 20 μM RAP2.12_2—17, 6 min anaerobic preincubation with 0.1 μM WT AtPCO4): 0.099; x (slope between 5-15 min), Preincubation rxn (recombinant AtPCO4 [3]; 50 μM RAP2.12_2—17, 6 min anaerobic preincubation with 0.1 μM WT AtPCO4): 0.275; x (slope between 5-15 min), No Preincubation (recombinant AtPCO4 [3]; 50 μM RAP2.12_2—17, no preincubation with AtPCO4 (anaerobic preparation)): 0.175; x (slope between 5-15 min), Preincubation rxn (recombinant AtPCO4 [3]; 100 μM RAP2.12_2—17, 6 min anaerobic preincubation with 0.1 μM WT AtPCO4): 0.34; x (slope between 5-15 min), No Preincubation (recombinant AtPCO4 [3]; 100 μM RAP2.12_2—17, no preincubation with AtPCO4 (anaerobic preparation)): 0.209; x (slope between 5-15 min), Preincubation rxn (recombinant AtPCO4 [3]; 200 μM RAP2.12_2—17, 6 min anaerobic preincubation with 0.1 μM WT AtPCO4): 0.303; x (slope between 5-15 min), No Preincubation (recombinant AtPCO4 [3]; 200 μM RAP2.12_2—17, no preincubation with AtPCO4 (anaerobic preparation)): 0.15
7 | 0.1162 |  | XGGAIISDFIPPPR [Peptidomimetic 8, 14-mer X… with N-terminal X = Nα-Me-Cys] | 
8 |  | 0.31 | XGGAIISDFIPPPR [Peptidomimetic 4, 14-mer X… with N-terminal X = S-methyl cysteine (linear thioether)] | 
9 | 0.07282 |  | XGGAIISDFIPPPR [Peptidomimetic 10, 14-mer X… with N-terminal X = Ser] | x (slope between 0-5 min), Peptidomimetic rxn (recombinant AtPCO4 [4]): 0.6491
10 | 0.03158 |  | XGGAIISDFIPPPR [Peptidomimetic 12, 14-mer X… with N-terminal X = AlG] | 
11 |  | 0.34 | XGGAIISDFIPPPR [Peptidomimetic 13, 14-mer X… with N-terminal X = Pra] | 

Row | Substance | x (slope between 0-5 min), Peptidomimetic rxn, no preincubation (recombinant AtPCO4 [1]) | x (slope between 0-5 min), Peptidomimetic rxn / CP rxn (recombinant AtPCO4 [2]) | further results
12 | XGGAIISDFIPPPR [Peptidomimetic 7, 14-mer X… with N-terminal X = 3MePro, Cys-analogue devoid of an amino group] | 0.03853 | 0.78 | increase in the initial rate of RAP2.12_2—17 oxidation between 0—5 min, Cys190Ala AtPCO4 variant (AtPCO4 Cys190Ala variant; 200 μM peptidomimetic, 6 min preincubation with 0.1 μM C190A AtPCO4, 20 μM RAP2.12_2—17, relative to control without peptidomimetic (=1), 25 °C, n = 3): 5.21 fold; Initial rate: x (slope between 0-5 min), Peptidomimetic rxn (AtPCO4 Cys190Ala variant; C190A AtPCO4, slope of turnover time course between 0-5 min): 0.4559
